# From patent publication US8741875B2, “Compounds as receptor modulators with therapeutic utility” (Allergan, Inc., priority 2009, dated 2014)
# Molecular target: T1, human S1P1 receptor (Homo sapiens, UniProt P21453)
# T1 construct: expressed in transfected cells; membranes used
# Assay: GTP γ35S binding assay for S1P1 activity
# Assay type: biochemical
# Conditions: membranes, 30 min at 25° C., read-out: S1P1 EC50 (Activity potency: S1P1 receptor from GTP γ35S)
# Method: Compounds were tested for S1P1 activity using the GTP γ^35S binding assay. These compounds may be assessed for their ability to activate or block activation of the human S1P1 receptor in cells stably expressing the S1P1 receptor.
# GTP γ^35S binding was measured in the medium containing (mM) HEPES 25, pH 7.4, MgCl2 10, NaCl 100, dithitothreitol 0.5, digitonin 0.003%, 0.2 nM GTP γ^35S, and 5 μg membrane protein in a volume of 150 μl. Test compounds were included in the concentration range from 0.08 to 5,000 nM unless indicated otherwise. Membranes were incubated with 100 μM 5′-adenylylimmidodiphosphate for 30 min, and subsequently with 10 μM GDP for 10 min on ice. Drug solutions and membrane were mixed, and then reactions were initiated by adding GTP γ^35S and continued for 30 min at 25° C. Reaction mixtures were filtered over Whatman GF/B filters under vacuum, and washed three times with 3 mL of ice-cold buffer (HEPES 25, pH7.4, MgCl2 10 and NaCl 100). Filters were dried and mixed with scintillant, and counted for ^35S activity using a β-counter. Agonist-induced GTP γ^35S binding was obtained by subtracting that in the absence of agonist. Binding data were analyzed using a non-linear regression method. In case of antagonist assay, the reaction mixture contained 10 nM S1P in the presence of test antagonist at concentrations ranging from 0.08 to 5000 nM.
# T1 sequence (P21453 whole entry): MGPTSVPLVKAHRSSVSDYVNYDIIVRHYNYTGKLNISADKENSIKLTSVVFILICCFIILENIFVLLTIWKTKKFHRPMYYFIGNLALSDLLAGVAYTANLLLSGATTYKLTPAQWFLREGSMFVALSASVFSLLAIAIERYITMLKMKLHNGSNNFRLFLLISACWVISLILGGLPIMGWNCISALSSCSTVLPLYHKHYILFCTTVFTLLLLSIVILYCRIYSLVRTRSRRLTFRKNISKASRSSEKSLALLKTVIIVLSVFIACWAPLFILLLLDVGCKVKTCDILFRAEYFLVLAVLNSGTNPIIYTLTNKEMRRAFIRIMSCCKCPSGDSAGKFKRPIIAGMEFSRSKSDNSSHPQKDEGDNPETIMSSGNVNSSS
row,EC50,Compound
1,0.9 nM,"O=P(O)(O)CCCNCc1ccc(OCCCCCc2ccccc2)c(-c2ccco2)c1 [Compound 1, [3-({3-(2-furyl)-4-[(5-phenylpentyl)oxy]benzyl}amino)propyl]phosphonic acid]"
2,11.9 nM,"O=P(O)(O)CCCNCc1ccc(OCCCCCc2ccccc2)c(-c2ncco2)c1 [Compound 2, [3-({3-(1,3-oxazol-2-yl)-4-[(5-phenylpentyl)oxy]benzyl}amino)propyl]phosphonic acid]"
3,2 nM,"O=P(O)(O)CCCNCc1ccc(OCCCCCc2ccccc2)c(-c2nccs2)c1 [Compound 3, [3-({4-[(5-phenylpentyl)oxy]-3-(1,3-thiazol-2-yl)benzyl}amino)propyl]phosphonic acid]"
4,0.6 nM,"O=P(O)(O)CCCNCc1ccc(OCCCCCc2ccccc2)c(-c2ccoc2)c1 [Compound 4, [3-({3-(3-furyl)-4-[(5-phenylpentyl)oxy]benzyl}amino)propyl]phosphonic acid]"
5,3.3 nM,"O=P(O)(O)CCCNCc1ccc(OCCCCCc2ccccc2)c(-c2ccsc2)c1 [Compound 5, [3-({4-[(5-phenylpentyl)oxy]-3-(3-thienyl)benzyl}amino)propyl]phosphonic acid]"
6,14.9 nM,"CC(C)Cc1ccc(CCCOc2ccc(CNCCCP(=O)(O)O)cc2-c2cccs2)cc1 [Compound 7, [3-({4-[3-(4-isobutylphenyl)propoxy]-3-(2-thienyl)benzyl}amino)propyl]phosphonic acid]"
7,3.4 nM,"O=P(O)(O)CCCNCc1ccc(OCCCCCc2ccccc2)c(C2=CCCC2)c1 [Compound 8, [3-({3-cyclopent-1-en-1-yl-4-[(5-phenylpentyl)oxy]benzyl}amino)propyl]phosphonic acid]"
8,10.1 nM,"O=S(=O)(O)CCCNCc1ccc(OCCCCCc2ccccc2)c(-c2cccs2)c1 [Compound 10, 3-({4-[(5-phenylpentyl)oxy]-3-(2-thienyl)benzyl}amino)propane-1-sulfonic acid]"
9,23 nM,"CP(=O)(O)CCCNCc1ccc(OCCCCCc2ccccc2)c(-c2cccs2)c1 [Compound 11, methyl[3-({4-[(5-phenylpentyl)oxy]-3-(2-thienyl)benzyl}amino)propyl]phosphinic acid]"
10,241 nM,"CC(CO)NCc1ccc(OCCCCCc2ccccc2)c(-c2cccs2)c1 (stereo not shown) [Compound 12, 2-({4-[(5-phenylpentyl)oxy]-3-(2-thienyl)benzyl}amino)propan-1-ol]"
11,714 nM,"OCC(CO)NCc1ccc(OCCCCCc2ccccc2)c(-c2cccs2)c1 [Compound 13, 2-({4-[(5-phenylpentyl)oxy]-3-(2-thienyl)benzyl}amino)propane-1,3-diol]"
12,1 nM,"O=P(O)(O)CCCNCc1ccc(OCCCCCc2ccccc2)c(-c2ccoc2)n1 [Compound 14, {3-[({6-(3-furyl)-5-[(5-phenylpentyl)oxy]pyridin-2-yl}methyl)amino]propyl}phosphonic acid]"
13,0.77 nM,"O=P(O)(O)CCCNCc1ccc(OCCCCCc2ccccc2)c(-c2cccs2)n1 [Compound 15, {3-[({5-[(5-phenylpentyl)oxy]-6-(2-thienyl)pyridin-2-yl}methyl)amino]propyl}phosphonic acid]"
14,517 nM,"CCCCCCCCCOc1ccc(CNCCCP(=O)(O)O)cc1-c1cccs1 [Compound 16, (3-{[4-(nonyloxy)-3-(2-thienyl)benzyl]amino}propyl)phosphonic acid]"
15,294 nM,"CCCCCCCCCCOc1ccc(CNCCCP(=O)(O)O)cc1-c1cccs1 [Compound 17, (3-{[4-(decyloxy)-3-(2-thienyl)benzyl]amino}propyl)phosphonic acid]"
16,2 nM,O=P(O)(O)CCCNCc1ccc(OCCCCCc2ccccc2)c(-c2ccc(F)s2)c1 [Compound 18]
17,1120 nM,"COc1cccc(CCCCCOc2ccc(CNCCCP(=O)(O)O)cc2-c2cccs2)c1 [Compound 19, (3-{[4-{[5-(3-methoxyphenyl)pentyl]oxy}-3-(2-thienyl)benzyl]amino}propyl)phosphonic acid]"

row,EC50,Compound
1,48.6 nM,"COc1ccc(CCCCCOc2ccc(CNCCCP(=O)(O)O)cc2-c2cccs2)cc1 [Compound 20, (3-{[4-{[5-(4-methoxyphenyl)pentyl]oxy}-3-(2-thienyl)benzyl]amino}propyl)phosphonic acid]"
2,19.7 nM,"O=P(O)(O)CCCNCc1ccc(OCCCCCc2ccc(F)cc2)c(-c2cccs2)c1 [Compound 21, (3-{[4-{[5-(4-fluorophenyl)pentyl]oxy}-3-(2-thienyl)benzyl]amino}propyl)phosphonic acid]"
3,65.7 nM,"O=P(O)(O)CCCNCc1ccc(OCCCCCc2cccc(C(F)(F)F)c2)c(-c2ccco2)c1 [Compound 22, (3-{[3-(2-furyl)-4-({5-[3-(trifluoromethyl)phenyl]pentyl}oxy)benzyl]amino}propyl)phosphonic acid]"
4,240 nM,"COc1cccc(CCCCCOc2ccc(CNCCCP(=O)(O)O)cc2-c2ccco2)c1 [Compound 23, (3-{[3-(2-furyl)-4-{[5-(3-methoxyphenyl)pentyl]oxy}benzyl]amino}propyl)phosphonic acid]"
5,0.98 nM,"O=P(O)(O)CCCNCc1ccc(OCCCCCc2ccc(F)cc2)c(-c2ccco2)c1 [Compound 24, (3-{[4-{[5-(4-fluorophenyl)pentyl]oxy}-3-(2-furyl)benzyl]amino}propyl)phosphonic acid]"
6,7 nM,"COc1ccc(CCCCCOc2ccc(CNCCCP(=O)(O)O)cc2-c2ccco2)cc1F [Compound 27, (3-{[4-{[5-(3-fluoro-4-methoxyphenyl)pentyl]oxy}-3-(2-furyl)benzyl]amino}propyl)phosphonic acid]"
7,1.9 nM,"COc1ccc(CCCCCOc2ccc(CNCCCP(=O)(O)O)cc2-c2cccs2)cc1F [Compound 28, (3-{[4-{[5-(3-fluoro-4-methoxyphenyl)pentyl]oxy}-3-(2-thienyl)benzyl]amino}propyl)phosphonic acid]"
8,5.7 nM,"O=P(O)(O)CCCNCc1ccc(OCCCCCc2ccc(Cl)cc2)c(-c2ccco2)c1 [Compound 29, (3-{[4-{[5-(4-chlorophenyl)pentyl]oxy}-3-(2-furyl)benzyl]amino}propyl)phosphonic acid]"
9,8 nM,"O=P(O)(O)CCCNCc1ccc(OCCCCCc2ccc(Cl)cc2)c(-c2cccs2)c1 [Compound 30, (3-{[4-{[5-(4-chlorophenyl)pentyl]oxy}-3-(2-thienyl)benzyl]amino}propyl)phosphonic acid]"
10,8.4 nM,"COc1ccc(CCCCCOc2ccc(CNCCCP(=O)(O)O)cc2-c2ccco2)cc1Cl [Compound 31, (3-{[4-{[5-(3-chloro-4-methoxyphenyl)pentyl]oxy}-3-(2-furyl)benzyl]amino}propyl)phosphonic acid]"
11,6.5 nM,"COc1ccc(CCCCCOc2ccc(CNCCCP(=O)(O)O)cc2-c2cccs2)cc1Cl [Compound 32, (3-{[4-{[5-(3-chloro-4-methoxyphenyl)pentyl]oxy}-3-(2-thienyl)benzyl]amino}propyl)phosphonic acid]"
12,7.1 nM,"COc1ccc(CCCCCOc2ccc(CNCCCP(=O)(O)O)cc2-c2ccco2)cc1 [Compound 33, (3-{[3-(2-furyl)-4-{[5-(4-methoxyphenyl)pentyl]oxy}benzyl]amino}propyl)phosphonic acid]"
13,12.5 nM,"COc1cccc(CCCCCOc2ccc(CNCCCP(=O)(O)O)cc2-c2ccoc2)c1 [Compound 34, (3-{[3-(3-furyl)-4-{[5-(3-methoxyphenyl)pentyl]oxy}benzyl]amino}propyl)phosphonic acid]"
14,54.1 nM,"O=P(O)(O)CCCNCc1ccc(OCCCCCc2ccccc2)c(-c2cocn2)c1 [Compound 35, [3-({3-(1,3-oxazol-4-yl)-4-[(5-phenylpentyl)oxy]benzyl}amino)propyl]phosphonic acid]"
15,18.5 nM,"CC(CCNCc1ccc(OCCCCCc2ccccc2)c(-c2ccco2)c1)P(=O)(O)O (stereo not shown) [Compound 36, [3-({3-(2-furyl)-4-[(5-phenylpentyl)oxy]benzyl}amino)-1-methylpropyl]phosphonic acid]"
16,52.6 nM,"O=[PH](O)CCCNCc1ccc(OCCCCCc2ccccc2)c(-c2cccs2)c1 [Compound 37, [3-({4-[(5-phenylpentyl)oxy]-3-(2-thienyl)benzyl}amino)propyl]phosphinic acid]"
17,1.9 nM,"O=P(O)(O)CCCNCc1ccc(OCCCCCc2ccccc2)c(-c2ccc(F)o2)c1 [Compound 38, [3-({3-(5-fluoro-2-furyl)-4-[(5-phenylpentyl)oxy]benzyl}amino)propyl]phosphonic acid]"

row,Compound,EC50
1,"O=P(O)(O)OCCNCc1ccc(OCCCCCc2ccccc2)c(-c2cccs2)c1 [Compound 9, 2-({4-[(5-phenylpentyl)oxy]-3-(2-thienyl)benzyl}amino)ethyl dihydrogen phosphate]",1.5 nM
2,"O=P(O)(O)CCCNCc1ccc(OCCCCc2ccc(F)cc2)c(-c2cccs2)c1 [Compound 25, [3-({4-[4-(4-fluorophenyl)butoxy]-3-(2-thienyl)benzyl}amino)propyl]phosphonic acid]",67.5 nM
3,"O=P(O)(O)CCCNCc1ccc(OCCCCc2ccc(F)cc2)c(-c2ccco2)c1 [Compound 26, [3-({4-[4-(4-fluorophenyl)butoxy]-3-(2-furyl)benzyl}amino)propyl]phosphonic acid]",98.9 nM
